Experimental data as given in patent US7507860B2 (Pfizer Inc., priority 2004, dated 2009).

Assays:
[1] = system: male Syrian hamsters, ear sebaceous glands; assay: Animal model for inhibition of sebum production (hamster ear, HPLC of sebum lipids); format: in vivo, Syrian hamster; settings: 4 weeks; for % Reduction in CE (cholesterol ester) / % Reduction in WE (wax ester): 3-w/v % topical to ears twice daily, five days a week, difference from vehicle control; for Sum CE + WE: summation of % reduction in CE and WE, 3-w/v % topical
Protocol: Luderschmidt et al describes an animal model for testing whether compounds are capable of modulating sebum secretion. Arch. Derm. Res. 258, 185-191 (1977). This model uses male Syrian hamsters, whose ears contain sebaceous glands. The products of Example 1 and 4 were screened in this model.
Testing for sebum inhibition was carried out in the following manner. Male Syrian hamsters aged 9 to 10 weeks were introduced into the laboratory environment and acclimated for 2 weeks prior to use in the study. Each group consisted of 5 animals and run in parallel with vehicle and positive controls. Prior to administration, 30 mg of each compound was dissolved in 1 mL of a solvent consisting of transcutanol, ethanol, and propylene glycol (20/60/20% v/v) to achieve a final concentration of 3-w/v %.
Animals were dosed topically twice daily, five days a week, for 4 weeks. Each dose consisted of 25 micro liters of vehicle control or drug. The dose was applied to the ventral surfaces of both the right and left ears. All animals were sacrificed approximately 18-24 hours after the final dose. The right ears were collected from each animal and used for sebum analysis.
The ears were prepped for HPLC analysis in the following manner. One 8 mm distal biopsy punch was taken, just above the anatomical “V” mark in the ear to normalize the sample area. The punch was pulled apart. The ventral biopsy surface (the area where the topical dose was directly applied to the sebaceous glands) was retained for testing and the dorsal surface of the biopsy punch was discarded.
Tissue samples were blown with N2 gas and stored at −80° C. under nitrogen until HPLC analysis. In addition to ear samples, an aliquot of each drug and vehicle (at least 250 ul) was also stored at −80° C. for inclusion in the HPLC analysis.
HPLC analysis was carried out on an extract of the tissue sample. Tissue samples were contacted with 3 ml of solvent (a 4:1 admixture of 2,2,4-trimethylpentane and isopropyl alcohol). The mixture was shaken for 15 minutes and stored overnight at room temperature, protected from light. The next morning 1 milliliter of water was added to the sample and shaken for 15 minutes. The sample was then centrifuged at approximately 1500 rpm for 15 minutes. Two ml of the organic phase (top layer) was transferred to a glass vial, dried at 37° C., under nitrogen, for approximately 1 hour, and then lyophilized for approximately 48 hours. The samples were then removed from the lyophilizer and each vial was reconstituted with 600 μl of solvent A (trimethylpentane/tetrahydrofuran (99:1). The samples were then recapped and vortexed for 5 minutes.
200 μl of each sample was then transferred to a pre-labeled 200 μl HPLC vial with 200 μL glass inserts. The HPLC vials were placed in the autosampler tray for the Agilent 1100 series HPLC unit. The Agilent 1100 HPLC system consisted of a thermostated autosampler, a quarternary pump, a column heater, and an A/D interface module. All components were controlled by Agilent ChemStation software. A Waters Spherisorb S3W 4.6×100 mm analytical column was maintained at 30° C. by the Agilent column heater unit. The HPLC autosampler was programmed to maintain the sample temperature at 20 C throughout the run.
10 uL of each sample was injected in triplicate into the column. Two solvents were used for the solvent gradient. Solvent A was an admixture of trimethylpentane and tetrahydrofuran (99:1). Solvent B was ethylacetate. The gradient utilized is described in the table below: […]
The Sedex 75 Evaporative Light Scattering Detector (ELSD) was operated at 45° C. with a gain of 5, and N2 pressure maintained at 3.1 bar. Analog signal obtained by the instrument was sent to the Agilent A/D interface module where it was converted to a digital output. The conversion was based on a 10000-mAU/volt set point and the data rate was set at 10 Hz (0.03 min). The resulting digital output was then feed into the Agilent ChemStation software for integration of the peak area. […]

[2] = system: male C3H/HeN mice; assay: Modified telogen conversion assay (animal model for androgenetic alopecia); format: in vivo, mouse; settings: 3 w/v % topical, twice daily for 4 weeks
From the text: It has been discovered that male C3H/HeN mice may be used in the telogen conversion assay, when evaluating anti-androgen test compounds. Thus, the model relates to a modification of the existing telogen conversion assay. Male C3H/HeN mice approximately 7 weeks old are utilized. These animals are also uniformly in telogen, like their female counterparts. However, once shaven, the androgens inherently present in these male mice inhibit the conversion of the hair follicles to the anagen phase. An anti-androgen will block this androgenic effect and the follicles will convert to anagen, like their female counterparts.
The compound described in Example 1 was submitted for further testing utilizing the modified telogen conversion assay, described above. The testing was carried out in the following manner.
Male C3H/HeN mice, 6 to 7 weeks old (Charles River Laboratories, Raleigh, N.C.) were used for the study. Fur was clipped from the dorsal region of the mice prior to initiation of the study. Only mice with pink skin, a visual indication of the telogen phase, were selected for inclusion in the study. […]
The treatment area was observed and graded every other day for signs of hair growth. The hair growth response was quantified by recording, for each animal, the day on which signs of hair growth first appeared over the treated area. […]

Compound: CC(C)CC(Oc1ccc(C#N)c(C(F)(F)F)c1)C(=O)NCc1ccccc1 (stereo not shown) [Example 1, 2-(4-Cyano-3-trifluoromethyl-phenoxy)-4-methyl-pentanoic acid benzylamide]
- % Reduction in CE (cholesterol ester) [1]: 32%
- % Reduction in WE (wax ester) [1]: 52%
- Sum CE + WE [1]: 84%

Compound: CCCC(Oc1ccc(C#N)c(C(F)(F)F)c1)C(=O)NCc1ccccc1 (stereo not shown) [Example 4, 2-(4-Cyano-3-trifluoromethyl-phenoxy)-pentanoic acid benzylamide]
- % Reduction in CE (cholesterol ester) [1]: 15%
- % Reduction in WE (wax ester) [1]: 31%
- Sum CE + WE [1]: 46%
- Induction of anagen (first signs of hair growth) versus vehicle control [2]: Anagen did not occur in the test group prior to its initiation in the vehicle control group
